Data on 26 molecules can be found in patent US20210128566A1, “NOVEL FUNCTIONALIZED PURINE-2,6-DIONES AND THEIR USE IN MEDICINE” (THOMAS HELLEDAYS STIFTELSE FÖR MEDICINSK FORSKNING, priority 2017, published 2021).

This test has as its target recombinant human NUDT5 (Homo sapiens, UniProt Q9UKK9). The experiment in a line: NUDT5 inhibitor activity by malachite green reporter assay. Type of test: biochemical. The following applies: 6 nM NUDT5, 50 μM ADP-Ribose, 15 minutes at room temperature. The protocol:
NUDT5 inhibitors were evaluated using a coupled enzymatic assay with detection of inorganic phosphate (Pi) using the malachite green assay. Following enzymatic hydrolysis of ADP-Ribose (Sigma-Aldrich A0572) by NUDT5, to yield AMP and ribose-5-phosphate, the latter product is continuously processed by a significant excess of alkaline phosphatase (Sigma-Aldrich, P0114). Formation of Pi is quantified based on the green complex (that absorbs at 630 nm) formed between malachite green and molybdate according to published procedure (Baykov, A. A., Evtushenko, O. A. and Avaeva, S. M., Anal Biochem, 171, 266-270 (1988)). Assay buffer consisted of 10 mM Tris-acetate at pH 8.0, 40 mM sodium chloride, 10 mM magnesium acetate, 0.005% Tween-20 and 1 mM dithiothreitol (DTT). The final conditions consisted of 6 nM recombinant human NUDT5, 50 μM ADP-Ribose and 10 U/ml of calf intestine alkaline phosphatase. The plates with compounds, enzymes and substrate were incubated at room temperature for 15 minutes, after which the reaction was terminated and the signal developed by the addition of the malachite green reagent using a MultiDrop (Thermo Scientific). Following vigorous shaking on plate shakers for a minimum of eight minutes the absorbance was read in a microplate reader (HidexSense) using a filter at 630 nm and a read time of 0.1 s per well. Inhibitors were used in dilutions from 100 μM to 1.7 nM in 3-fold dilution steps. Experiments were run in duplicate and confirmed in two independent experiments. IC50 values were determined by curve fitting using ExcelFit.

For the molecule `Cc1ccc(-c2cc(Cn3c(Cl)nc4c3c(=O)n(C)c(=O)n4C)no2)cc1` [Example 80, 8-chloro-1,3-dimethyl-7-{[5-(4-methylphenyl)-1,2-oxazol-3-yl]methyl}-2,3,6,7-tetrahydro-1H-purine-2,6-dione], the IC50 (as a rule, the concentration at which inhibition is half-maximal) (Table 4) is 3.79 µM.

In the case of `CCOC(=O)c1cnn(-c2nc3c(c(=O)n(C)c(=O)n3C)n2Cc2nnc(-c3ccc(Cl)c(Cl)c3)o2)c1` [Example 68, ethyl 1-(7-{[5-(3,4-dichlorophenyl)-1,3,4-oxadiazol-2-yl]methyl}-1,3-dimethyl-2,6-dioxo-2,3,6,7-tetrahydro-1H-purin-8-yl)-1H-pyrazole-4-carboxylate], the IC50 (Table 4) was 0.214 µM.

With `Cn1c(=O)c2c(nc(NCC3CCN(C(=N)N)CC3)n2Cc2nnc(-c3ccc(Cl)c(Cl)c3)o2)n(C)c1=O` [Example 85, 4-{[(7-{[5-(3,4-dichlorophenyl)-1,3,4-oxadiazol-2-yl]methyl}-1,3-dimethyl-2,6-dioxo-2,3,6,7-tetrahydro-1H-purin-8-yl)amino]methyl}piperidine-1-carboximidamide], the IC50 (Table 4) turned out to be 0.0195 µM.

For `Cn1c(=O)c2c(nc(Cl)n2Cc2cnc(-c3ccc(Cl)cc3)s2)n(C)c1=O` [Example 75, 8-chloro-7-{[2-(4-chlorophenyl)-1,3-thiazol-5-yl]methyl}-1,3-dimethyl-2,3,6,7-tetrahydro-1H-purine-2,6-dione], the IC50 (Table 4) turned out to be 0.239 µM.

For `Cn1c(=O)c2c(nc(N3CCNCC3)n2Cc2nnc(-c3ccc(C#N)cc3)o2)n(C)c1=O` [Example 112], the concentration for half-maximal inhibition (IC50) (Table 4) stood at 0.255 µM.

`COC1CCN(c2nc3c(c(=O)n(C)c(=O)n3C)n2Cc2nnc(-c3ccc(Cl)c(Cl)c3)o2)CC1` [Example 43, 7-{[5-(3,4-dichlorophenyl)-1,3,4-oxadiazol-2-yl]methyl}-8-(4-methoxypiperidin-1-yl)-1,3-dimethyl-2,3,6,7-tetrahydro-1H-purine-2,6-dione]: the IC50 (Table 3) was 0.0268 µM.

In the case of `Cc1ccc(-c2nnc(Cn3c(Cl)nc4c3c(=O)n(C)c(=O)n4C)o2)cn1` [Example 106, 8-chloro-1,3-dimethyl-7-{[5-(6-methylpyridin-3-yl)-1,3,4-oxadiazol-2-yl]methyl}-2,3,6,7-tetrahydro-1H-purine-2,6-dione], where the note is “Table 4”, the IC50 turned out to be 2.92 µM.

As for `CC(C)c1nc2c(c(=O)n(C)c(=O)n2C)n1Cc1nnc(-c2ccc(Cl)c(Cl)c2)o1` [Example 62, 7-{[5-(3,4-dichlorophenyl)-1,3,4-oxadiazol-2-yl]methyl}-1,3-dimethyl-8-(propan-2-yl)-2,3,6,7-tetrahydro-1H-purine-2,6-dione], where the note is “Table 3”, the IC50 was > 1 µM.

As to `CCN(CC)c1nc2c(c(=O)n(C)c(=O)n2C)n1Cc1nnc(-c2ccc(Cl)c(Cl)c2)o1` [Example 4, 7-{[5-(3,4-dichlorophenyl)-1,3,4-oxadiazol-2-yl]methyl}-8-(diethylamino)-1,3-dimethyl-2,3,6,7-tetrahydro-1H-purine-2,6-dione], where the note is “Table 3”, the IC50 is > 1 µM.

On to `COc1cc(-c2nnc(Cn3c(N4CCC(CN)CC4)nc4c3c(=O)n(C)c(=O)n4C)o2)ccc1C` [Example 127, 8-[4-(aminomethyl)piperidin-1-yl]-7-{[5-(3-methoxy-4-methylphenyl)-1,3,4-oxadiazol-2-yl]methyl}-1,3-dimethyl-2,3,6,7-tetrahydro-1H-purine-2,6-dione], for which the IC50 (Table 4) was found to be 0.0329 µM.

Consider `Cn1c(=O)c2c(nc(N3CCC(CO)CC3)n2Cc2nnc(-c3ccc(Cl)c(Cl)c3)o2)n(C)c1=O` [Example 40, 7-{[5-(3,4-dichlorophenyl)-1,3,4-oxadiazol-2-yl]methyl}-8-[4-(hydroxymethyl)piperidin-1-yl]-1,3-dimethyl-2,3,6,7-tetrahydro-1H-purine-2,6-dione], for which, under “Table 3”, the IC50 was 0.0203 µM.

On to `Cn1c(=O)c2c(nc(Cl)n2Cc2nnc(-c3ccc(Cl)nc3)o2)n(C)c1=O` [Example 95, 8-chloro-7-{[5-(6-chloropyridin-3-yl)-1,3,4-oxadiazol-2-yl]methyl}-1,3-dimethyl-2,3,6,7-tetrahydro-1H-purine-2,6-dione], for which the IC50 (Table 4) was 1.38 µM.

As for `COCCN1CCN(c2nc3c(c(=O)n(C)c(=O)n3C)n2Cc2nnc(-c3cccc(C)c3)o2)CC1` [Example 57, 8-[4-(2-methoxyethyl)piperazin-1-yl]-1,3-dimethyl-7-{[5-(3-methylphenyl)-1,3,4-oxadiazol-2-yl]methyl}-2,3,6,7-tetrahydro-1H-purine-2,6-dione], for the setting “Table 3”, the IC50 is > 1 µM.

On to `CCCc1nc2c(c(=O)n(C)c(=O)n2C)n1Cc1nnc(-c2ccc(Cl)c(Cl)c2)o1` [Example 61, 7-{[5-(3,4-dichlorophenyl)-1,3,4-oxadiazol-2-yl]methyl}-1,3-dimethyl-8-propyl-2,3,6,7-tetrahydro-1H-purine-2,6-dione], for which the IC50 (Table 3) worked out at 0.246 µM.

For `COc1ccc(-c2nnc(Cn3c(N4CCNCC4)nc4c3c(=O)n(C)c(=O)n4C)o2)cc1` [Example 74, 7-{[5-(4-methoxyphenyl)-1,3,4-oxadiazol-2-yl]methyl}-1,3-dimethyl-8-(piperazin-1-yl)-2,3,6,7-tetrahydro-1H-purine-2,6-dione], the IC50 (Table 4) was 0.198 µM.

Consider `Cn1c(=O)c2c(nc(NCCO)n2Cc2nnc(-c3ccc(Cl)c(Cl)c3)o2)n(C)c1=O` [Example 2, 7-{[5-(3,4-dichlorophenyl)-1,3,4-oxadiazol-2-yl]methyl}-8-[(2-hydroxyethyl)amino]-1,3-dimethyl-2,3,6,7-tetrahydro-1H-purine-2,6-dione], for which, where the note is “Table 3”, the IC50 came out at 0.0237 µM.

On to `Cn1c(=O)c2c(nc(N3CCCC(O)C3)n2Cc2nnc(-c3ccc(Cl)c(Cl)c3)o2)n(C)c1=O` (centres unmarked) [Example 44, 7-{[5-(3,4-dichlorophenyl)-1,3,4-oxadiazol-2-yl]methyl}-8-(3-hydroxypiperidin-1-yl)-1,3-dimethyl-2,3,6,7-tetrahydro-1H-purine-2,6-dione], for which the IC50 (Table 3) was 0.0215 µM.

With `CCCCN1CCN(c2nc3c(c(=O)n(C)c(=O)n3C)n2Cc2nnc(-c3cccc(C)c3)o2)CC1` [Example 54, 8-(4-butylpiperazin-1-yl)-1,3-dimethyl-7-{[5-(3-methylphenyl)-1,3,4-oxadiazol-2-yl]methyl}-2,3,6,7-tetrahydro-1H-purine-2,6-dione], under “Table 3”, the IC50 is > 1 µM.

As for `Cn1c(=O)c2c(nc(N3CCC3)n2Cc2nnc(-c3ccc(Cl)c(Cl)c3)o2)n(C)c1=O` [Example 36, 8-(azetidin-1-yl)-7-{[5-(3,4-dichlorophenyl)-1,3,4-oxadiazol-2-yl]methyl}-1,3-dimethyl-2,3,6,7-tetrahydro-1H-purine-2,6-dione], the IC50 (Table 3) was 0.034 µM.

As for `Cc1cccc(-c2nnc(Cn3c(N4CCN(c5ccccc5)CC4)nc4c3c(=O)n(C)c(=O)n4C)o2)c1` [Example 58, 1,3-dimethyl-7-{[5-(3-methylphenyl)-1,3,4-oxadiazol-2-yl]methyl}-8-(4-phenylpiperazin-1-yl)-2,3,6,7-tetrahydro-1H-purine-2,6-dione], the IC50 (Table 3) is > 1 µM.

Take `Cn1c(=O)c2c(nc(NCC(=O)OC(C)(C)C)n2Cc2nnc(-c3ccc(Cl)c(Cl)c3)o2)n(C)c1=O` [Example 84, tert-butyl 2-[(7-{[5-(3,4-dichlorophenyl)-1,3,4-oxadiazol-2-yl]methyl}-1,3-dimethyl-2,6-dioxo-2,3,6,7-tetrahydro-1H-purin-8-yl)amino]acetate]: the IC50 (Table 4) amounted to 0.0936 µM.

Consider `CN(C)CCN(C)c1nc2c(c(=O)n(C)c(=O)n2C)n1Cc1nnc(-c2ccc(Cl)c(Cl)c2)o1` [Example 135, 7-{[5-(3,4-dichlorophenyl)-1,3,4-oxadiazol-2-yl]methyl}-8-{[2-(dimethylamino)ethyl](methyl)amino}-1,3-dimethyl-2,3,6,7-tetrahydro-1H-purine-2,6-dione], for which the IC50 (Table 4) was determined as 0.0963 µM.

With `Cn1c(=O)c2c(nc(Cl)n2Cc2nnc(-c3cccc(F)c3)o2)n(C)c1=O` [Example 91, 8-chloro-7-{[5-(3-fluorophenyl)-1,3,4-oxadiazol-2-yl]methyl}-1,3-dimethyl-2,3,6,7-tetrahydro-1H-purine-2,6-dione], where the note is “Table 4”, the IC50 amounted to 2.15 µM.

With `CNc1nc2c(c(=O)n(C)c(=O)n2C)n1Cc1nnc(-c2ccc(Cl)c(Cl)c2)o1` [Example 5, 7-{[5-(3,4-dichlorophenyl)-1,3,4-oxadiazo-2-yl]methyl}-1,3-dimethyl-8-(methylamino)-2,3,6,7-tetrahydro-1H-purine-2,6-dione], for the setting “Table 3”, the IC50 came out at 0.0125 µM.

Turning to `Cn1c(=O)c2c(nc(N3CCN(C(=O)OC(C)(C)C)CC3)n2Cc2nnc(-c3ccc(N)cc3)o2)n(C)c1=O` [Example 105, tert-butyl 4-(7-{[5-(4-aminophenyl)-1,3,4-oxadiazol-2-yl]methyl}-1,3-dimethyl-2,6-dioxo-2,3,6,7-tetrahydro-1H-purin-8-yl)piperazine-1-carboxylate], for the setting “Table 4”, the IC50 is 24.5 µM.

On to `Cn1c(=O)c2c(nc(S(=O)(=O)C3CCCCC3)n2Cc2nnc(-c3ccc(Cl)c(Cl)c3)o2)n(C)c1=O` [Example 24, 8-(cyclohexanesulfonyl)-7-{[5-(3,4-dichlorophenyl)-1,3,4-oxadiazol-2-yl]methyl}-1,3-dimethyl-2,3,6,7-tetrahydro-1H-purine-2,6-dione], for which the IC50 (Table 3) was 0.0227 µM.
